The values that follow come from US9927437B2, “Treating neurodegenerative disease” (THE BRIGHAM AND WOMEN'S HOSPITAL, INC., priority 2013, dated 2018).

This experiment relates to T cells. Briefly: T-cell response in EAE mice (recall proliferation, cytokines, polarization). The format is in vivo, mouse. As for the experimental part: FIGS. 9a-d. Depletion of reactive astrocytes reduces the recruitment of peripheral leukocytes to the CNS. (a-d). EAE was induced in WT or GFAP^TK F1 hybrid mice and Ganciclovir (GCV) or vehicle control (PBS) was administered as in FIG. 1b. Data are representative of three independent experiments with n≥7 mice/group (means and s.e.m.). (a) Effect of GCV administration on reactive astrocytes detected by GFAP staining (b) Recruitment of monocytes (red gate) and lymphocytes (green gate) to the CNS assessed by FACS. Data are representative of three independent experiments. Statistical analysis by Student's t-test. (c, d) Effect of the depletion of reactive astrocytes during the chronic phase of EAE on the recall proliferative response to MOG(35-55) or anti-CD3 (c) and the expression of IFN-γ, IL-17A, Foxp3 and IL-10 in splenic CD4+ T cells (d). *P<0.05, and (n.s) not significant.
FIGS. 12a-i. […] (a) Naïve C57BL/6 (Left panel) and NOD (right panel) mice were treated with LacCer (10 μg per mouse) or vehicle as indicated by red arrows, and EAE clinical scores was recorded. At experimental end point (day 25), astrocytes were isolated and their transcriptional profile was determined by nCounter Nanostring analysis. (b-e) EAE was induced in C57BL/6 (b, c) or NOD mice (d, e) and LacCer or vehicle were administrated as in FIGS. 1g and 1h, respectively. Splenic T-cell recall response to MOG(35-55) (20 μg/ml); proliferation (b, d) and secretion of IL-17A, IFN-γ and IL-10 cytokines (c, e). Data are representative of two independent experiments with ≥8 mice/group (mean and s.e.m.). (f-i) EAE NOD mice were treated with PDMP or vehicle during the chronic phase as in FIG. 1K. Data are representative of three independent experiments with n≥8 mice/group (mean and s.e.m.). (f) qPCR analysis of the expression of tbx21, ifng, rorc, il17A, csf2, il10, foxp3, and tgfb1 mRNA of CD3^+CD4^+ T-cells isolated from the CNS; expression is presented relative to gapdh. (g, h) Recall response to MOG(35-55) (20 μg/ml); proliferation (g) and secretion of IL-17A, IFN-γ and IL-10 cytokines (h). (i) Expression of IFN-γ, IL-17A, Foxp3 and IL-10 by splenic CD3^+CD4^+ T cells (mean and s.e.m.).
Splenocytes and lymph node cells were cultured in X-VIVO medium and were plated for 72 h at a density of 5×10^5 cells per well in the presence of MOG35-55 peptide. During the final 16 h, cells were pulsed with […] [3H]thymidine (PerkinElmer), followed by collection on glass fiber filters and analysis of incorporated [3H]thymidine in a-counter (1450 MicroBeta TriLux; PerkinElmer). Supernatants were collect after 48 h of culture for cytokine measurement by enzyme-linked immunosorbent assay^14. For intracellular cytokine staining, cells were stimulated for 6 h with PMA (phorbol 12-myristate 13-acetate; 50 ng/ml; Sigma), ionomycin (1 μg/ml; Sigma) and monensin (GolgiStop; […]; BD Biosciences). After staining of surface markers, cells were fixed and made permeable according to the manufacturer's instructions BD Cytofix/Cytoperm™ Kit (BD Biosciences), or Foxp3 Fixation/Permeabilization (Ebiosceince).

Regarding `CCCCCCCCCC(=O)N[C@H](CN1CCOCC1)[C@H](O)c1ccccc1` [PDMP, D-threo-1-phenyl-2-decanoylamino-3-morpholino-1-propanol], the T-cell response result (NOD EAE, PDMP-treated mice, chronic phase) is listed as “No significant changes”.
As to lactosylceramide [LacCer], the T-cell response result (C57BL/6 and NOD EAE after LacCer administration) is listed as “not linked to changes in the T-cell response”.
